Patent US20260335306A1, “DOSAGE REGIMENS OF ESTROGEN RECEPTOR DEGRADERS” (priority 2022, published 2026)
Read-outs that look alike come from different tables or passages of the source.

What was measured:
MCF7 xenograft = MCF7 xenograft model, palbociclib study; assay type: in vivo, NOD/SCID mice; settings: 28 days; Compound A 30 mg/kg PO QD, fulvestrant 200 mg/kg SC, palbociclib 60 mg/kg PO QD; FIG. 5
Experimental: Female severe combined immunodeficient mouse in non-obese background (NOD/scid) mice were implanted with MCF7 cells and compound administration was initiated once the tumors reached 200 mm^3. Tumor volumes were evaluated twice per week for 28 days. […] Data are presented as mean±standard error of the mean (SEM)
(§1) Briefly, MCF7 cells were orthotopically implanted into the mammary fat pads of NOD/SCID female mice. 17β-estradiol 0.72 mg 90-day pellet (Innovative Research of America) were implanted 2-3 days prior to MCF7 cell implant. […] Compound A- and/or combination partner-treated mice were dosed orally once daily. Fulvestrant-treated mice were dosed subcutaneously twice per week for 2 weeks followed by once weekly for 2 weeks.
(§2) Vehicle for abemaciclib was 1% […] (HEC) in 20 mM HCl pH2. Vehicle for ribociclib was 0.5% methylcellulose. Vehicle for fulvestrant was 10% w/v ethanol, 10% w/v benzyl alcohol, 15% w/v benzyl benzoate, made up to 100% w/v with castor oil. […] Tumor volumes were measured twice per week in efficacy studies and calculated using (width^2×length)/2, where all measurements are in millimeters (mm) and the tumor volume is in mm^3. Body weights were recorded twice per week. […] Tumor growth inhibition (TGI) was calculated as follows, where tumor volume is in mm^3: […]

MCF7 cells = experiment: Live-cell imaging proliferation assay (Incucyte), MCF7; assay type: cell-based; settings: for GI50: Homo sapiens, MCF7, 120 h, read-out: approximate GI50; for mean decrease in MCF7 cell growth relative to control: 5 days, Compound A 10 nM
Source text: (§3) FIGS. 1A-1H are graphs showing quantification of the MCF7 and T47D live-cell imaging proliferation assays. […] Each plot is representative of three independent experiments. […] Each plot is representative of three independent experiments, except for the T47D fulvestrant arms in FIGS. 1A and 1C, which are the result of 2 independent experiments). FIGS. 1B, 1D, 1F and 1H show differences in relative MCF7 and T47D cell growth compared to vehicle control at 120-hours of treatment. Graphs show the mean of three independent experiments, except for the T47D fulvestrant arms in FIGS. 1B and 1D, which are the result of 2 independent experiments). Error bars=standard error of the mean (SEM). *p<0.025, **p≤0.008, ***p≤0.0006, ****p<0.0001, ns=not significant (one-way ANOVA test).
(§4) MCF7 or T47D cells were seeded in 6 well plates and treated with the indicated concentrations of compounds. The plate was then placed in the Incucyte® S3 Live-Cell Analysis System and images were acquired every 4 hours for a total of 5 days. Data were analyzed using the Incucyte® Software v2020C which quantified cell surface area coverage as confluence values. Relative growth was calculated for all timepoints for all growth conditions relative to the confluence value observed for the control at 120 hours (FIGS. 1A and 1C). Graphing and statistical analyses were performed using Graphpad Prism (GraphPad Software).
(§5) For fulvestrant and fulvestrant plus abemaciclib, mean decreases in MCF7 cell growth were 48% and 68%, respectively.

[1] = tested on: MCF7 orthotopic xenograft; experiment: MCF7 orthotopic xenograft model, abemaciclib study; assay type: in vivo, NOD/SCID mice; settings: 28 days; Compound A 30 mg/kg, abemaciclib 30 mg/kg orally QD, fulvestrant 200 mg/kg SC; FIG. 3A
Experimental: Briefly, MCF7 cells were orthotopically implanted into the mammary fat pads of NOD/SCID female mice. 17β-estradiol 0.72 mg 90-day pellet (Innovative Research of America) were implanted 2-3 days prior to MCF7 cell implant. […] Fulvestrant-treated mice were dosed subcutaneously twice per week for 2 weeks followed by once weekly for 2 weeks.
Eight- to ten-week-old female NOD/SCID mice were surgically implanted with a 0.36 mg 90-day release 17β-estradiol pellet subcutaneously. One to two days later each mouse was injected with 5×10^6/200 μL MCF7 cells into one mammary fat pad. […] Fulvestrant (200 mg/kg, subcutaneously; twice per week for 2 weeks followed by once-weekly for 2 weeks) was also evaluated as a single agent and in combination with abemaciclib and ribociclib. […]
Vehicle for abemaciclib was 1% hydroxymethyl cellulose (HEC) in 20 mM HCl pH2. […] Tumor volumes were measured twice per week in efficacy studies and calculated using (width^2×length)/2, where all measurements are in millimeters (mm) and the tumor volume is in mm^3. Body weights were recorded twice per week. […] Tumor growth inhibition (TGI) was calculated as follows, where tumor volume is in mm^3:

[2] = tested on: MCF7 orthotopic xenograft; experiment: MCF7 orthotopic xenograft model, ribociclib study; assay type: in vivo, NOD/SCID mice; settings: 28 days; Compound A 30 mg/kg, ribociclib 75 mg/kg orally QD, fulvestrant 200 mg/kg SC; FIG. 3B
Experimental: Mean tumor volumes are reported ±SEM. Single-day dosing holidays are indicated by small black arrows.
Compounds dosed as single agents or in combination, 10 mice/arm.
as §1
Eight- to ten-week-old female NOD/SCID mice were surgically implanted with a 0.36 mg 90-day release 17β-estradiol pellet subcutaneously. […] Fulvestrant (200 mg/kg, subcutaneously; twice per week for 2 weeks followed by once-weekly for 2 weeks) was also evaluated as a single agent and in combination with abemaciclib and ribociclib. […]
as §2, with “pH2.” for “pH2. Vehicle for ribociclib was 0.5% methylcellulose. Vehicle for fulvestrant was 10% w/v ethanol, 10% w/v benzyl alcohol, 15% w/v benzyl benzoate, made up to 100% w/v with castor oil.”

T47D cells = experiment: Live-cell imaging proliferation assay (Incucyte), T47D; assay type: cell-based; settings: Homo sapiens, 120 h; for GI50: read-out: approximate GI50
Source text: as §3, §4, §5

[3] = human, in vivo
[4] = Clinical Pharmacology Study: safety in healthy volunteers; settings: 200 mg, 47 healthy participants
[5] = Biopharmaceutics Classification System classification; assay type: physicochemical
[6] = Interconversion of Compound A to Compound B; assay type: physicochemical
[7] = FIH Study Part C: pharmacokinetics in patients with breast cancer; assay type: in vivo, human; settings: preliminary
Experimental: Additional evaluation will include single- and multiple-dose pharmacokinetics and biochemical activity.
Palbociclib was administered orally once a day at 125 mg/day for 21 days followed by 7 days off treatment for each 28-day cycle according to product labeling and in compliance with its local prescribing information.
Anticancer Drugs. 2018 March; 29 (3): 271280).

[8] = Exposure of Compound B relative to Compound A (preclinical data)
ER = molecular target: T1, ER (Homo sapiens, UniProt P03372); experiment: ER degradation
T1 construct: degradation by PROTAC
T1 sequence (P03372 1-595): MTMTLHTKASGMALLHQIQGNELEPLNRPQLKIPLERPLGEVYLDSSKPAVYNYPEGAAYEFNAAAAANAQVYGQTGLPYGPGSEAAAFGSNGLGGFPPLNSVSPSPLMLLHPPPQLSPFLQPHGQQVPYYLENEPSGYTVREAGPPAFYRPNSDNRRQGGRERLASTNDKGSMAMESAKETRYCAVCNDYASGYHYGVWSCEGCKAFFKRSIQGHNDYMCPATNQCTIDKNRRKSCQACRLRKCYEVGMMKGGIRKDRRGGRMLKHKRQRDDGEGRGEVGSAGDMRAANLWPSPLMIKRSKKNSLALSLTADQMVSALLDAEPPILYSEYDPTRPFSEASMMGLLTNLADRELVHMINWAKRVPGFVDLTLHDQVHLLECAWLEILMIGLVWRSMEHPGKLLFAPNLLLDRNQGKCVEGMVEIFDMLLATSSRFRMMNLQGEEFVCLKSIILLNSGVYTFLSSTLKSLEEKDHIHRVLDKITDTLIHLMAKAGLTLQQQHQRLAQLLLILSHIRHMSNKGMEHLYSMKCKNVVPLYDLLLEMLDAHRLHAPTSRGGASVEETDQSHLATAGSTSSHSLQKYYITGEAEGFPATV

[9] = abemaciclib experiment, fulvestrant 1 nM, abemaciclib 40 nM (approx. GI50)
[10] = read-out: mean decrease in T47D cell growth relative to control
[11] = read-out: mean change in T47D cell growth relative to control
[12] = with palbociclib, 180 up to 500 mg QD Compound A, Cycle 1 Day 1 and Day 15

## C[C@]12CC[C@@H]3c4ccc(O)cc4C[C@@H](CCCCCCCCC[S+]([O-])CCCC(F)(F)C(F)(F)F)[C@H]3[C@@H]1CC[C@@H]2O (stereo partly shown) [fulvestrant]
MCF7 xenograft
  tumor growth inhibition (TGI): 46%
MCF7 cells
  GI50: ~0.001 µM
MCF7 cells; [9]
  mean decrease in MCF7 cell growth relative to control: 48%
[1]
  tumor growth inhibition (TGI): 42%
[2]
  tumor growth inhibition (TGI): 31%
T47D cells
  GI50: ~0.001 µM
T47D cells; [10]
  inhibition at 0.001 µM: 16%

## O=C1CC[C@H](N2Cc3cc(N4CCN(CC5CCN(c6ccc([C@@H]7c8ccc(O)cc8CC[C@@H]7c7ccccc7)cc6)CC5)CC4)ccc3C2=O)C(=O)N1 [Compound A, (S)-3-(5-(4-((1-(4-((1R,2S)-6-hydroxy-2-phenyl-1,2,3,4-tetrahydronaphthalen-1-yl)phenyl)piperidin-4-yl)methyl)piperazin-1-yl)-1-oxoisoindolin-2-yl)piperidine-2,6-dione]
MCF7 xenograft
  tumor growth inhibition (TGI): 105%
[3]
  SAEs, SARs or deaths: No SAEs, SARs or deaths were reported
MCF7 cells
  GI50: ~0.01 µM
[4]
  TRAEs of Grade 2 or higher: no TRAEs of Grade 2 or higher were reported
  tolerability: well-tolerated
[5]
  Biopharmaceutics Classification System Class: Class IV
  permeability (BCS): low permeability
  solubility (BCS): low solubility
[6]
  interconversion to Compound B: can interconvert
T47D cells
  GI50: ~0.01 µM
T47D cells; [11]
  inhibition at 0.01 µM: 41%
T47D cells; [10]
  inhibition at 0.01 µM: 42%

## CCN1CCN(Cc2ccc(Nc3ncc(F)c(-c4cc(F)c5nc(C)n(C(C)C)c5c4)n3)nc2)CC1 [abemaciclib, N-(5-((4-ethylpiperazin-1-yl)methyl)pyridin-2-yl)-5-fluoro-4-(4-fluoro-1-isopropyl-2-methyl-1H-benzo[d]imidazol-6-yl)pyrimidin-2-amine]
MCF7 cells
  GI50: ~0.04 µM
MCF7 cells; [9]
  mean decrease in MCF7 cell growth relative to control: 49%
[1]
  tumor growth inhibition (TGI): 50%
T47D cells
  GI50: ~0.04 µM
T47D cells; [10]
  inhibition at 0.04 µM: 32%

## CN(C)C(=O)c1cc2cnc(Nc3ccc(N4CCNCC4)cn3)nc2n1C1CCCC1 [ribociclib, 7-cyclopentyl-N,N-dimethyl-2-[(5-piperazin-1-ylpyridin-2-yl)amino]pyrrolo[2,3-d]pyrimidine-6-carboxamide]
MCF7 cells
  GI50: ~0.04 µM
MCF7 cells; ribociclib experiment, ribociclib 40 nM (approx. GI50)
  mean decrease in MCF7 cell growth relative to control: 44%
[2]
  tumor growth inhibition (TGI): 58%
T47D cells
  GI50: ~0.04 µM
T47D cells; [11]
  inhibition at 0.04 µM: 32%

## CC(=O)c1c(C)c2cnc(Nc3ccc(N4CCNCC4)cn3)nc2n(C2CCCC2)c1=O [palbociclib, 6-acetyl-8-cyclopentyl-5-methyl-2-(5-piperazin-1-yl-pyridin-2-ylamino)-8H-pyrido[2,3-d]pyrimidin-7-one]
[7]; Cycle 1 Day 15, 125 mg QD palbociclib with 500 mg QD Compound A
  increase in palbociclib AUCtau vs PALOMA-1 and PALOMA-2: ~34%

## O=C1CC[C@@H](N2Cc3cc(N4CCN(CC5CCN(c6ccc([C@@H]7c8ccc(O)cc8OC[C@@H]7c7ccccc7)cc6)CC5)CC4)ccc3C2=O)C(=O)N1 [Compound B]
[7]; [12]
  AUCtau, dose dependence: dose-dependent increases
  Cmax, dose dependence: dose-dependent increases
[8]
  exposure of Compound B compared to Compound A: < 26%
ER
  degradation of the ER: does not degrade the ER
